# Assay results: the Kinase Knowledgebase extract (Sharma et al. 2016)
# Molecular target: MAPK14 (human) (UniProt Q16539)
# Assay: Inhibition of MAPK14 Kinase Activity
# MAPK14 (human), sequence (Q16539 whole entry, looked up): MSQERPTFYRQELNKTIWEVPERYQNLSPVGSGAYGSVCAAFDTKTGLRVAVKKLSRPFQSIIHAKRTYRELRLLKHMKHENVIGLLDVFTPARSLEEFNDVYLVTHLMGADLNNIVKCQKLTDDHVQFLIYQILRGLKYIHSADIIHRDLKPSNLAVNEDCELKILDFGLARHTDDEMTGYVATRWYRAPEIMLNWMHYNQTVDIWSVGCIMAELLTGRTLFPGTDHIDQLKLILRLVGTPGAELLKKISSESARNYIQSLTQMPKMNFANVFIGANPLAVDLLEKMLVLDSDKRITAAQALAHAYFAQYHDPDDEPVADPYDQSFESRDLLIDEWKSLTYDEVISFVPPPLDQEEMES
row,SMILES,IC50
1,Cc1ccc(C(=O)NC2CC2)cc1-n1ccnc(N[C@H](CC(=O)N2CCN(C)CC2)c2ccccc2)c1=O,25.1 nM
2,Cc1ccc(C(=O)NC2CC2)cc1-n1ccnc(NCC2Cc3ccccc3CN2)c1=O (centres undefined),126 nM
3,Cc1ccc(C(=O)NC2CC2)cc1-n1ccnc(NC(CC(=O)NC2CC2)c2ccccc2)c1=O (centres undefined),31.6 nM
4,Cc1ccc(C(=O)NC2CC2)cc1-n1ccnc(N[C@H](CC(=O)OC(C)(C)C)c2ccccc2)c1=O,20 nM
5,CNCCCOc1ccccc1[C@@H]1CCCN1c1nccn(-c2cc(C(=O)NC3CC3)ccc2C)c1=O,25.1 nM
6,CCN(CC)CCOc1ccccc1C(C)(C)Nc1nccn(-c2cc(C(=O)NC3CC3)ccc2C)c1=O,0.631 nM
7,CCC(CC)(Nc1nccn(-c2cc(C(=O)NC3CC3)ccc2C)c1=O)c1ccccc1OCCNC,0.398 nM
8,CNCCCOc1ccccc1[C@H]1CCCN1c1nccn(-c2cc(C(=O)NC3CC3)ccc2C)c1=O,1.26 nM
9,Cc1ccc(C(=O)NC2CC2)cc1-n1ccnc(N[C@@H](c2ccccc2)[C@@H](C)CN2CCC(C(N)=O)CC2)c1=O,0.631 nM
10,Cc1ccc(C(=O)NC2CC2)cc1-n1ccnc(NCc2cccc(CNC(=O)OC(C)(C)C)c2)c1=O,31.6 nM
11,Cc1ccc(C(=O)NC2CC2)cc1-n1ccnc(NCc2ccc(CNC(=O)OC(C)(C)C)cc2)c1=O,501 nM
12,Cc1ccc(C(=O)NC2CC2)cc1-n1ccnc(NC(c2ccccc2)C2CCN(C)CC2)c1=O (centres undefined),251 nM
13,CCC(C)NC(=O)c1ccc(C)c(-n2ccnc(NCc3ccc(N4CCN(C)CC4)cc3)c2=O)c1 (centres undefined),1000 nM
14,Cc1ccc(C(=O)NC2CC2)cc1-n1ccnc(N[C@@H](c2ccccc2)[C@@H](C)CN2CCCN(C)CC2)c1=O,1 nM
